The subject of one assay is rabbit B-cells. The assay can be described thus: rbIgG ELISA of cell culture supernatants of rabbit B-cells co-cultivated with EL-4 B5 feeder cells. Type of assay: cell-based. The note with it: for B-cell growth: SAC added to feeder mix. The protocol:
(§1) a) The co-cultivation was performed in 96-well multi well plates with round bottom. A basis solution comprising EL-4 B5 cells (1.6×10^6 cells/15.2 ml) and cytokines in EL-4 B5 medium was prepared. 200 μl of the basis solution was added to each well of the multi well plate. To each well a single B-cell was added by fluorescence activated cell sorting. After the addition of the B-cells the plate was centrifuged for 5 min. at 300×g. The plate is incubated for seven days at 37° C.
[…] B cell culture supernatants were removed for screening and the cells harvested immediately for variable region gene cloning or frozen at −80° C. in 100 μl RLT buffer (Qiagen, Hilden, Germany).
(§2) The 96-well multi well plate in which the co-cultivation was performed was centrifuged after seven days of co-cultivation at 300×g for 5 min. 150 μl supernatant was removed and diluted at a ratio of 2:1 with PBS in a second 96-well multi well plate.
The ELISA was performed as outlined in Example 17.
The antibody was used at a concentration of 50 ng/ml. If the OD was or exceeded 1 after an incubation time of 5 min. a dilution series of from 0.8 to 108 ng/ml IgG was tested.
Antibodies produced by single deposited and co-cultivated B-cells or from B-cells obtained from an immunized experimental animal can be characterized with respect to specific antigen binding. The ELISA was performed at room temperature and the ELISA-solution was incubated between the individual steps on a shaker at 20×g. In the first step the antigen was bound to the wells of a 96-well multi well plate. If the antigen was a protein it had been diluted in coating buffer and applied directly to the plate. Peptide antigens were bound via the specific binding pair biotin/streptavidin. The wells of the multi well plate can be already coated with soluble CroteinC (CrC) by the manufacturer. If not, the wells were incubated after the immobilization of the antigen with 200 μl blocking buffer. After the incubation with 100 μl antigen solution per well (pre-coated multi well plate) or 200 μl blocking buffer, respectively, non-bound antigen or blocking buffer was removed by washing with wash buffer. The diluted B-cell supernatants were added in a volume of 100 μl per well and incubated. After the incubation the wells were washed. Afterwards the detection antibody was added in a volume of 100 μl per well. The antibody can be either conjugated to horseradish peroxidase or labeled with biotin. The detection antibody was determined with a streptavidin-horseradish peroxidase conjugate. After the incubation the multi well plate was washed and afterwards 50 μl of a substrate solution containing 3,3′,5,5′ tetramethyl benzidine (TMB) were added per well and incubated for a period as given in Table X. The enzymatic reaction was stopped by the addition of 50 μl sulfuric acid and the optical density was determined at 450 nm and 680 nm with a photometer (Rainbow Thermo ELISA Reader) and the Xread plus-software.
On the technique in general: An ELISA detects its analyte on a solid surface through an enzyme-linked reagent.

The test system of a further assay is murine B-cells. Briefly: Co-cultivation of B-cells with feeder cells and feeder mix additives. Format: cell-based, mouse. As for the experimental part:
as §1, §2

For the next assay, the system named is hamster B-cells. Described as above. Type of assay: cell-based. As for the experimental part: as §1, §2
Setting [1] is: SAC 1:20000, Table 8a third block (with w/o control).
[2] abbreviates: SAC 1:50000, Table 8a third block.
The mark [3] stands for this setting: SAC 1:100000, Table 8a third block.
[4] abbreviates: SAC 1:150000, Table 8a third block.
[5] abbreviates: TSN + SAC, SAC 1:5000, Table 8a second block.
Setting [6] is: TSN + SAC, SAC 1:10000, Table 8a second block.
Where [7] appears, read: TSN + SAC, SAC 1:20000, Table 8a second block.
[8] abbreviates: TSN + SAC, SAC 1:40000, Table 8a second block.
[9] abbreviates: PAP-1 0.01 μM, in the presence of TSN and SAC.
[10] abbreviates: PAP-1 0.1 μM, in the presence of TSN and SAC.
Setting [11] is: PAP-1 1 μM, in the presence of TSN and SAC.
[12] abbreviates: PAP-1 10 μM, in the presence of TSN and SAC.
[13] abbreviates: addition of PAP-1 to co-cultivation.

Consider “Staphylococcus aureus strain Cowans cells [SAC]”, for which the “rbIgG conc. of all rbIgG^+ wells [Ø ng/ml]” value in the assay with rabbit B-cells (setting [1]) was determined as 665 ng/mL; in the assay on rabbit B-cells (setting [2]), 742 ng/mL; in the assay with rabbit B-cells (setting [3]), 774 ng/mL; with rabbit B-cells (setting [4]), 668 ng/mL; with rabbit B-cells (setting [5]) it was 149.0 ng/mL; with rabbit B-cells (setting [6]), 159.1 ng/mL. Further, the “rbIgG conc. of all rbIgG^+ wells [Ø ng/ml]” value with rabbit B-cells (setting [7]) amounted to 233.7 ng/mL; in the assay on rabbit B-cells (setting [8]) it was 197.2 ng/mL. The “rbIgG^+ wells [% total wells]” value with rabbit B-cells (setting [1]) was 30 % total wells; in the assay with rabbit B-cells (setting [2]) it was 37 % total wells; in the assay with rabbit B-cells (setting [3]) it was 37 % total wells; with rabbit B-cells (setting [4]) it was 29 % total wells; in the assay on rabbit B-cells (setting [5]), 15 % total wells; in the assay on rabbit B-cells (setting [6]) it was 18 % total wells. In addition, the “rbIgG^+ wells [% total wells]” value in the assay on rabbit B-cells (setting [7]) is listed as 32 % total wells; in the assay with rabbit B-cells (setting [8]), 36 % total wells. The “rbIgG^+ wells [n]” value in the assay with rabbit B-cells (setting [1]) was determined as 75 n; with rabbit B-cells (setting [2]), 93 n; with rabbit B-cells (setting [3]), 92 n; in the assay with rabbit B-cells (setting [4]), 72 n; in the assay with rabbit B-cells (setting [5]), 13 n; in the assay with rabbit B-cells (setting [6]), 15 n. The “rbIgG^+ wells [n]” value in the assay on rabbit B-cells (setting [7]) is listed as 27 n; with rabbit B-cells (setting [8]) it was 30 n. The B-cell growth entry with rabbit B-cells (PBL (B cells and endogenous T cells) mixture for co-cultivation) is “B-cell growth was inhibited”; with rabbit B-cells (single deposited B-cells) it was “only single deposited B-cells have a benefit in growth”. Moreover, the “number of IgG^+-wells/cell clones” value is recorded as “increased number of IgG^+-wells/cell clones” with rabbit B-cells (SAC ratio of from 1:20000 to 1:150000) and “highest numbers” with rabbit B-cells (SAC ratio of from 1:50000 to 1:100000). In the assay with rabbit B-cells (addition of SAC, single SAC lot), the “number of antibody secreting B-cells and average IgG-concentration in the supernatant after co-cultivation” value is recorded as “can be increased”.

Regarding `O=c1ccc2c(OCCCCOc3ccccc3)c3ccoc3cc2o1` [PAP-1, 5-(4-phenoxybutoxy) psoralene, reference compound], in the assay with rabbit B-cells (setting [9]), the “rbIgG conc. of all huCk^+ wells [average ng/ml]” value (shortened to “rbIgG conc. of all huCk^+ wells”) was found to be 289.0 ng/mL, the “rbIgG^+ wells [% total wells]” value came out at 29 % total wells and the “rbIgG^+ wells [n]” value amounted to 72 n. In the assay with rabbit B-cells (setting [10]), the “rbIgG conc. of all huCk^+ wells” value came out at 452.9 ng/mL, the “rbIgG^+ wells [% total wells]” value was found to be 27 % total wells and the “rbIgG^+ wells [n]” value was determined as 69 n. In addition, in the assay with rabbit B-cells (setting [11]), the “rbIgG conc. of all huCk^+ wells” value was determined as 579.5 ng/mL, the “rbIgG^+ wells [% total wells]” value was determined as 37 % total wells and the “rbIgG^+ wells [n]” value turned out to be 93 n. Moreover, in the assay with rabbit B-cells (setting [12]), the “rbIgG conc. of all huCk^+ wells” value stood at 890.7 ng/mL, the “rbIgG^+ wells [% total wells]” value is on record as 32 % total wells and the “rbIgG^+ wells [n]” value was 80 n. In the assay on rabbit B-cells (setting [13]), the “effect on number of B-cell clones” value is reported as “without decreasing the number of B-cell clones” and the “effect on rbIgG secretion of B-cells” value is “increases the rbIgG secretion of B-cells in a concentration dependent manner”.

Take “IL-6: interleukin-6, cytokine additive of the feeder mix”: in the assay on murine B-cells (addition of IL-6 to the feeder mix, murine-B-cells), the “number of IgG^+-wells/cell clones” value was “increased number of IgG^+-wells/cell clones”. Also, in the assay on hamster B-cells (addition of IL-6 to the feeder mix, hamster-B-cells), the IgG-concentration result is recorded as “increased IgG-concentration”.

B1: IL-4: interleukin-4, cytokine additive of the feeder mix (protein, UniProt P07750 21-140, looked up)
Interleukin-4: HIHGCDKNHLREIIGILNEVTGEGTPCTEMDVPNVLTATKNTTESELVCRASKVLRIFYLKHGKTPCLKKNSSVLMELQRLFRAFRCLDSSISCTMNESKSTSLKDFLESLKSIMQMDYS
On to B1, for which the “number of IgG^+-wells/cell clones and IgG-concentration in the supernatant” value with murine B-cells (addition of IL-4 to the feeder mix, murine B-cells) is given as “increases the number of IgG^+-wells/cell clones as well as the IgG-concentration in the supernatant”; with hamster B-cells (addition of IL-4 to the feeder mix, hamster B-cells) it was “increases the number of IgG^+-wells/cell clones as well as the IgG-concentration in the supernatant”.

(Values after patent US20210062149A1, “SINGLE B-CELL CULTIVATION METHOD” (Hoffmann-La Roche Inc., priority 2010, published 2021).)
